row,SMILES,melting point
1,CCn1c(Cl)nc2ccccc21,48 to 50 °C
2,COC(=O)CCC/C=C(/c1cc(C)c2on(C)c(=O)c2c1)c1cc(C)c2oc(=O)n(C)c2c1,152 to 154 °C
3,COc1ccc(C(=C2CCCCC2)c2ccc(OC)cc2)cc1,106 to 107 °C
4,CC1NCC(CO)CC1OC(=O)c1ccncc1 (configuration not stated),126 to 128 °C
5,CC(C)OC(=O)C=Cc1ccc(Br)cc1,64 to 66 °C
6,COC(=O)c1cc(OC(C)=O)c2cc[nH]c2c1,160 to 162 °C
7,CC(C)n1nc(-c2sc(C(=O)NCc3ccncc3)nc2-c2ccccc2)ccc1=O,192 to 193 °C
8,CC(C)Nc1cncc(C#N)c1,82 °C
9,N#Cc1nn(-c2c(Cl)cc(C(F)(F)F)cc2Cl)c(N)c1-c1cccnc1,265 to 267 °C
10,Cc1c(C)c2c(c(C)c1N)CC(C)(CN1CCc3c([nH]c4ccccc34)C1)O2 (configuration not stated),150 to 153 °C
11,CCOC(=O)NCCS(=O)CC(=O)NCC=CCOc1cccc(CN2CCCCC2)c1 (configuration not stated),64.7 to 66.1 °C
12,CNC(Cc1ccc2c(c1)Nc1nccnc1S2)=NC#N,233 to 234 °C
13,O=C(/C=C/c1ccccc1[N+](=O)[O-])N1CCN(C(=O)c2cc(C(F)(F)F)cc(C(F)(F)F)c2)[C@H](Cc2c[nH]c3ccccc23)C1,125 to 133 °C
14,CON=C(C1=C(O)C(=O)N(c2ncc(S(=O)(=O)c3ccc([N+](=O)[O-])cc3)s2)C1c1ccc(C(C)C)cc1)c1ccc(C)cc1 (configuration not stated),156 °C
15,O=c1c2ccc(O)cc2[nH]c2c([N+](=O)[O-])ccc(Cl)c12,292 to 294 °C
16,OCCCc1conc1-c1ccc(Cl)c(Cl)c1,62 to 63 °C
17,Oc1ccc2c(c1)CC(n1cc[nH]c1=S)CC2 (configuration not stated),248 to 250 °C
18,Cc1c(C)c2c(c(C)c1NC(=O)NC(C)(C)C)C(O)(c1ccc3ccccc3c1)C(C)(C)O2 (configuration not stated),212 to 214 °C
19,CC1CN=C(c2cccs2)NO1 (configuration not stated),70 to 72 °C
20,CC(C)c1cccc(CN2C[C@H](CO)OC2=O)c1,75 to 77 °C
21,CCS(=O)(=O)Nc1cc(Cc2c[nH]cn2)ccc1C,140 to 152 °C
22,CN(C)c1cncc(I)n1,46 to 48 °C
23,CN(Cc1cccc(-c2ccc(CC3SC(=O)NC3=O)cc2)c1)C(=O)c1cccnc1 (configuration not stated),115 °C
24,N#Cc1ccc(C(=O)N2CCc3cc(S(=O)(=O)N4CC(c5ccccc5)NC4=O)ccc32)cc1 (configuration not stated),241 to 243 °C

row,SMILES,melting point
1,CC(C)N1CC2CC(C1)CN(C(C)(O)c1ccc(F)cc1)C2 (configuration not stated),53 to 54 °C
2,CCOC(=O)CCCNC1=NS(=O)(=O)c2ccccc21,125 to 127 °C
3,C=CCOc1cc(OC)ccc1C(=O)c1ccccc1,40 °C
4,COc1ccc(C2CCN(c3c(C)c(C)c4c(c3C)C(c3ccsc3)C(C)(C)O4)CC2)cc1OC (configuration not stated),111 to 113 °C
5,COc1ccc(C(=O)c2c(C)cc(NC(C)(C)C)nc2NC(C)(C)C)cc1,127 to 129 °C
6,Cc1cc(C)cc(SCC(=O)c2ccc(C(C)C)cc2)c1,46 to 47 °C
7,CC(C)Cn1c(CNC(=O)OC(C)(C)C)c(-c2ccccc2)c2cc(-c3nc(C#N)cs3)ccc2c1=O,209 to 211 °C
8,O=C(O)C(Cc1ccccc1)NCC1c2c(c3ccccc3c3ccccc23)-c2c1c1ccccc1c1ccccc21 (configuration not stated),178 to 180 °C
9,Cc1ccc(Oc2ccccc2C(=O)O)c(NS(=O)(=O)c2cc(C(F)(F)F)cc(C(F)(F)F)c2)c1,165 to 166 °C
10,O=C(CCCCCNC1(c2ccccc2Cl)C(=O)Nc2ccc(Cl)cc21)OCc1ccccc1 (configuration not stated),98 to 99 °C
11,OC1Cc2cc(F)cc(F)c2C1 (configuration not stated),52 to 56 °C
12,Cn1cccc1CC(=O)O,97 to 100 °C
13,c1cc(CN2CCCCC2)cc(OCCCNc2ccnc3ccccc23)c1,127 to 128 °C
14,CNC(=S)N1CCC23C=C[C@H](O)CC2Oc2c(OC)cc(Br)c(c23)C1 (some centres not stated),183 to 185 °C
15,CS(=O)(=O)Nc1cccc(Nc2nc(N3CCC[C@H]3CO)c3nc[nH]c3n2)c1,192 to 197 °C
16,O=S(=O)(CC1CCCCC1)c1nc[nH]n1,172 to 175 °C
17,CC(Cn1ncnn1)n1nnc2cc3c(=O)n(C4CCC4)nnc3cc2c1=O (configuration not stated),152 to 154 °C
18,O=C(Nc1cc(Cl)cc(Cl)c1)C1=C(O)N2CCCN=C2S1,270 °C
19,CC(=O)CCCCCCCC(=O)c1ccc(OCc2ccccc2)c(OCc2ccccc2)c1,72 to 74 °C
20,CCCCn1ccc(N2CCC(c3ccccc3)CC2)c(Cl)c1=O,149 °C
21,C=CC1(S(=O)(=O)CCS(=O)(=O)CC(O)CS(=O)(=O)CCCl)C=CC=CC1 (configuration not stated),> 200 °C
22,Cn1cc(CS(C)=O)c(=O)c2ccccc21 (configuration not stated),93 to 95 °C
23,Cc1cc(C(=O)Nc2ccc(OCC(C)(C)C)c(C#N)c2)nn1-c1ccc(F)cc1,146 to 147 °C
24,COC(=O)c1cccc(-c2nc(CCl)c(C)o2)c1,119 to 120 °C

row,SMILES,melting point
1,O=C1C(Cc2ccc(Br)cc2)=C(C(F)F)C(=O)c2ccccc21,103 to 104 °C
2,CC1(C)C(=O)N(c2ccc(C#N)c(C(F)(F)F)c2)C(=O)N1CCCCCl,80 to 81 °C
3,COC(=O)[C@H](Cc1ccc(I)cc1)NC(C)=O,118 to 120 °C
4,O=C(CCC(=O)[C@H](Cc1ccccc1)NC(=O)c1ccccc1)N[C@@H](Cc1c[nH]c2ccccc12)C(=O)O,171 to 173 °C
5,Cc1c(C(=O)c2ccc(Cl)cc2)oc2cccc(O)c12,238 to 241 °C
6,C=CS(=O)(=O)C(C(=O)NC)S(=O)(=O)C=C,143 to 147 °C
7,Cc1cc(Nc2ccnc(Nc3ccc(S(=O)(=O)N(C)C4CCN(C)CC4)cc3)n2)ccc1F,110 to 120 °C
8,O=C(O)c1cc2c(Cl)ccc(Br)c2s1,> 300 °C
9,CCOC(=O)CNc1ncccc1NC(=O)c1ccc(Cl)c(Cl)c1,137 to 138 °C
10,CCCCCCCC(=O)Oc1c(OC)c(OC)c(OC(=O)CCCCCCC)c2cc(Cl)ccc12,74 to 75 °C
11,O=C1N(Cc2ccc(C(F)(F)F)o2)c2ccccc2C12COc1cc3c(nc12)OCO3 (configuration not stated),175 to 177 °C
12,CCc1ccc2c(c1)C=Cc1cc(C)ccc1C2c1cn(-c2ccnc(NCC(=O)Nc3ncc(CC(=O)O)s3)n2)c(=O)[nH]c1=O (configuration not stated),206 to 208 °C
13,CC(C)(C)c1ccc(-c2sc(N)c(C(=O)c3ccc(Cl)cc3)c2CN(C2CCCCC2)C2CCCCC2)cc1,180 to 184 °C
14,CSc1ccc(C(O)C#CC2(O)CCCC2)cc1 (configuration not stated),118 to 120 °C
15,CN(C)C=Nc1nc(OCOC(=O)C(C)(C)C)ncc1F,86 to 88 °C
16,CCSc1ccc(C2=NC[C@@H](OC(=O)Nc3ccccc3)[C@H](c3ccccc3)O2)cc1 (racemic),70 °C
17,C#CCOc1cc(-n2nc3c(Cl)cc(Cl)cn3c2=O)c(F)cc1C#N,145 to 147 °C
18,Oc1cccc(C#Cc2ccc(C(F)(F)F)cc2)c1,131 to 132 °C
19,CN1CC(CNC(=O)C(F)(F)F)c2c[nH]c3cccc(c23)C1=O (configuration not stated),174 to 177 °C
20,CC(=O)c1cc(C(=O)c2ccc3ccccc3c2)c[nH]1,172 to 174 °C
21,COc1cc2c(cc1OC)N(c1ccc([N+](=O)[O-])cc1[N+](=O)[O-])CC2,219 °C
22,Cc1ccc(NC(=N)c2ccccn2)cc1C,105 to 107 °C
23,Nc1cc(Br)c(Br)cc1[N+](=O)[O-],198 to 199 °C
24,Cc1cc(C)n(-c2cc(F)c(C#N)cc2F)n1,122 °C

# Reference: a melting point compilation (Tetko et al.; mined from patent text by program, amines drawn as free bases though some values may be those of a salt)
